Data on 1 sequence can be found in paper PMC9112550, “Optimization of the antimicrobial peptide Bac7 by deep mutational scanning” (BMC Biology, 2022).

As a reminder, the IC50 is the concentration that inhibits the measured activity by half.

Series [1] deals with HEK 293 cells transfected with a luciferase construct. Briefly: Whole cell translation inhibition assay. It counts as cell-based, human. Conditions: HEK 293 whole-cell assay; 24 h incubation; luminescence; n = 1. The protocol:
HEK293 cells were cultivated in DMEM medium supplemented with 10% fetal bovine serum and transfected with vector pRM-hFluc carrying a Fluc gene under constitutive CMV promotor control using Xfect™ Transfection Reagent (Takara, Japan) according to the manufacturer’s protocol. Transfected cells were seeded into a 24-well plate 6 h post-transfection and pre-incubated overnight prior to addition of peptides in the next morning. Following 24 h of incubation in the presence of the peptides, cells were lysed using Lysis Buffer (Promega) and the luminescence was measured in a white microtiter plate using the FLx800 luminometer (Bio-Tek Instruments, USA).

The subject of the next series is E. coli TOP10. As to the kind of experiment: Deep mutational scanning, site-saturation Bac7_1-23 library, intracellular self-screening with NGS. Format: cell-based. As to conditions: intracellular expression. The protocol: A focused strategy was pursued to generate diversity at positions 5, 18, 19, and 20 in the Bac7_1-23 peptide. […] Degeneration was introduced by using the QuikChange technique, amplifying the pBAD plasmid containing the Bac7_1-23 gene using a mixture of 20 oligonucleotides (Additional file 1: Table S1) at a final concentration of 0.3 μM and Phusion® High-Fidelity PCR Master Mix in HF buffer. The amplification was performed using 20 cycles of 98°C for 10 s, 60°C for 15 s, and 72°C for 10 s. The PCR product was treated with the enzyme Dpn1 to remove the template plasmid and subsequently purified. The purified product was used to transform 20 μl of CloneCatcher™ Gold DH5G Electrocompetent E. coli (Genlantis, Burlington, USA) cells using electroporation.
To assess the antimicrobial activity of multiple peptides in parallel when expressed intracellularly in E. coli TOP10, previously prepared aliquots containing E. coli plasmid libraries created by either random mutagenesis or site-saturation mutagenesis were used. For both approaches, three aliquots containing approximately 500 million cells each of E. coli TOP10 harboring peptide-encoding DNA sequences on the pBAD plasmid were thawed and added to three 1-l baffled shake flasks containing 100 ml of LB medium + 100 μg ml^−1 carbenicillin. The cultures were grown for roughly 7 h at 37°C.

Another series relates to HEK 293 cells. It counts as cell-based, human. As to conditions: MTT, 24 h, 37°C, triplicates, read-out: Toxicity IC50. As for the experimental part:
(§1) HeLa epithelioid cervix carcinoma cells (originally purchased: 93021013, Sigma Aldrich) and HEK 293 human embryonic kidney (originally purchased: 85120602, Sigma Aldrich) were routinely cultivated in Dulbecco’s MEM high glucose (DMEM, with L-glutamine, without phenol red, 1-26P32, Bioconcept, Allschwil, CH), supplemented with 10% fetal bovine serum (heat inactivated, sterile filtered, F9665, Sigma Aldrich) and 100 IU ml^−1/100 μg ml^−1 Penicillin/streptomycin (4-01F00, Bioconcept) at 37°C with 5% CO2. Cells were split at a confluency of ≤ 90% (every 3 to 4 days) and maintained for max. 10 passages before a fresh aliquot of cells were seeded. […] The cell concentration was determined using a Countess 2 device (Thermo Fisher Scientific) and approx. 5000 (HeLa) or 25,000 (HEK 293) cells were seeded into wells of a 96-well plate (F-bottom, PS, 655180, Greiner) together with 100 μl DMEM. […] For each dilution series, the IC50 value was determined by computing a weighted n-parameters logistic regression using the “nplr” package in R (https://CRAN.R-project.org/package=nplr). […]

For the next series, the system named is HeLa cells. As to the kind of experiment: In vitro toxicity assay (MTT), HeLa. Format: cell-based, human. As for the experimental part: as §1

Where no end group is shown, it is not given here.

Take RRIRIRPPRLPRPRPRPYFMPRP [Bac7PS]: the “concentration above which increased translational inhibition relative to Bac7_1-23 appeared” value in series [1] is listed as “above 200 μM”. Besides, in the series with E. coli TOP10, the “antimicrobial activity in the library” value is reported as “the most active”. Further, the IC50 in the series on HEK 293 cells was determined as 755 µM; in the series with HeLa cells (HeLa, MTT, 24 h, 37°C, triplicates), 521 µM. For the same sequence, the “therapeutic index (TI), Toxicity/MIC” value in the series on HeLa cells (IC50 HeLa divided by MIC50 from clinical isolates) was 180.
